{"source": "patent US8501946B2", "about": "(Glaxo Group Limited, priority 2009, dated 2013)", "data": [{"biological_target": "T1, human recombinant P2X7 receptors (Homo sapiens, UniProt Q99572)", "T1 construct": "expressed in transfected cells", "T1 sequence (Q99572 1-595)": "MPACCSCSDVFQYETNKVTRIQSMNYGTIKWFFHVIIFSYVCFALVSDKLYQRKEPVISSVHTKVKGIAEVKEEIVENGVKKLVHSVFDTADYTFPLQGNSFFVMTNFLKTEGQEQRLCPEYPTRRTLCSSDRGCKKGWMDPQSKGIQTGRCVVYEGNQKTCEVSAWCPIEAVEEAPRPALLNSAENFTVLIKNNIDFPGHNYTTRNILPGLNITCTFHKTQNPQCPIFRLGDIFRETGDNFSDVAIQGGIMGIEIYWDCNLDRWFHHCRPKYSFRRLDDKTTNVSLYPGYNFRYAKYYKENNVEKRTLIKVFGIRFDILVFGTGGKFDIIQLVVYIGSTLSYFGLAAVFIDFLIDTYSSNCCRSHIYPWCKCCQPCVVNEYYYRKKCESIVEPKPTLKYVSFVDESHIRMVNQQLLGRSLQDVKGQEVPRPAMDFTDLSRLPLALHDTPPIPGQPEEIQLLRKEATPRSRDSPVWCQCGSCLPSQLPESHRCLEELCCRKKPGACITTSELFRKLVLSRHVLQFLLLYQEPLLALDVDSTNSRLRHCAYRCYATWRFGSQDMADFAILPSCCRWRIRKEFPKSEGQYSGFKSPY", "test": "Ethidium Accumulation Assay 1 (HEK293 cells, ATP-induced ethidium uptake)", "format": "cell-based", "settings": "HEK293 cells expressing human P2X7; 1 mM ATP; sometimes mean of more than one measurement; read-out: Assay 1 (antagonist pIC50 for blocking ATP responses) (converted)", "experimental": "Eithidium Accumulation Assay 1\nStudies were performed using NaCl assay buffer of the following composition: 140 mM NaCl, 10 mM HEPES [4-(2-hydroxyethyl)-1-piperazine-1-ethanesulfonic acid], 5 mM N-methyl-D-glucamine, 5.6 mM KCl, 10 mM D-glucose, 0.5 mM CaCl2 (pH 7.4).\nHuman Embryonic Kidney (HEK) 293 cells, stably expressing human recombinant P2X7 receptors, were grown in poly-D-lysine pretreated 96 well plates for 18-24 hours.\nThe cells were washed twice with 350 μl of the assay buffer, before addition of 50 μl of the assay buffer containing the putative P2X7 receptor antagonist compound. (A small amount of dimethyl sulfoxide, for initially dissolving the compound, is optionally used and present in this 50 μl test compound sample.) The cells were then incubated at room temperature (19-21° C.) for 30 min before addition of ATP and ethidium (100 μM final assay concentration). The ATP concentration was chosen to be close to the EC80 for the receptor type and was 1 mM for studies on the human P2X7 receptor. Incubations were continued for 8 or 16 min and were terminated by addition of 25 μl of 1.3M sucrose containing 4 mM of the P2X7 receptor antagonist Reactive Black 5 (Aldrich). […] Antagonist pIC50 values for blocking ATP responses were determined using iterative curve fitting techniques.", "units": {"IC50": "nM"}, "values": [{"smiles": "O=C(c1cccc(Cl)c1Cl)N1CCn2c(nnc2-c2ccc(F)cc2F)C1", "note": "[Example 98]", "IC50": "< 100"}, {"smiles": "O=C(c1ccccc1Cl)N1CCn2c(nnc2-c2ccc(F)cc2)C1", "note": "[Example 119, 7-[(2-chlorophenyl)carbonyl]-3-(4-fluorophenyl)-5,6,7,8-tetrahydro[1,2,4]triazolo[4,3-a]pyrazine]", "IC50": "< 100"}, {"smiles": "O=C(c1cccc(Cl)c1Cl)N1CCn2c(nnc2-c2ccc[nH]2)C1", "note": "[Example 64, 7-[(2,3-dichlorophenyl)carbonyl]-3-(1H-pyrrol-2-yl)-5,6,7,8-tetrahydro[1,2,4]triazolo [4,3-a]pyrazine]", "IC50": "< 10"}, {"smiles": "O=C(c1cccc(Cl)c1Cl)N1CCn2c(nnc2-c2cscn2)C1", "note": "[Example 67, 7-[(2,3-dichlorophenyl)carbonyl]-3-(1,3-thiazol-4-yl)-5,6,7,8-tetrahydro[1,2,4]triazolo[4,3-a]pyrazine]", "IC50": "< 10"}, {"smiles": "O=C(c1ccccc1Cl)N1CCn2c(nnc2-c2cscn2)C1", "note": "[Example 103, 7-[(2-chlorophenyl)carbonyl]-3-(1,3-thiazol-4-yl)-5,6,7,8-tetrahydro[1,2,4]triazolo [4,3-a]pyrazine]", "IC50": "< 10"}, {"smiles": "O=C(c1ccc(F)cc1Cl)N1CCn2c(Br)nnc2C1", "note": "[Example 109, 3-Bromo-7-[(2-chloro-4-fluorophenyl)carbonyl]-5,6,7,8-tetrahydro[1,2,4]triazolo[4,3-a]pyrazine]", "IC50": "< 501"}, {"smiles": "O=C(c1cccc(C(F)(F)F)c1Cl)N1CCn2c(Br)nnc2C1", "note": "[Example 1, 3-Bromo-7-{[2-chloro-3-(trifluoromethyl)phenyl]carbonyl}-5,6,7,8-tetrahydro[1,2,4]triazolo[4,3-a]pyrazine]", "IC50": "< 10"}, {"smiles": "Cn1ccc(-c2nnc3n2CCN(C(=O)c2cccc(C(F)(F)F)c2Cl)C3)n1", "note": "[Example 27, 7-{[2-chloro-3-(trifluoromethyl)phenyl]carbonyl}-3-(1-methyl-1H-pyrazol-3-yl)-5,6,7,8-tetrahydro[1,2,4]triazolo [4,3-a]pyrazine]", "IC50": "< 10"}, {"smiles": "O=C(c1ccc(F)cc1Cl)N1CCn2c(nnc2-c2cscn2)C1", "note": "[Example 90, 7-[(2-chloro-4-fluorophenyl)carbonyl]-3-(1,3-thiazol-4-yl)-5,6,7,8-tetrahydro[1,2,4]triazolo [4,3-a]pyrazine]", "IC50": "< 10"}, {"smiles": "O=C(c1ccc(F)cc1Cl)N1CCn2c(nnc2-c2ccccn2)C1", "note": "[Example 37, 7-[(2-chloro-4-fluorophenyl)carbonyl]-3-(2-pyridinyl)-5,6,7,8-tetrahydro[1,2,4]triazolo [4,3-a]pyrazine]", "IC50": "< 10"}, {"smiles": "Cc1nc(-c2nnc3n2CCN(C(=O)c2ccc(F)cc2Cl)C3)cs1", "note": "[Example 136, 7-[(2-chloro-4-fluorophenyl)carbonyl]-3-(2-methyl-1,3-thiazol-4-yl)-5,6,7,8-tetrahydro[1,2,4]triazolo[4,3-a]pyrazine]", "IC50": "< 501"}, {"smiles": "O=C(c1cccc(C(F)(F)F)c1Cl)N1CCn2c(nnc2-c2cccnc2)C1", "note": "[Example 16, 7-{[2-Chloro-3-(trifluoromethyl)phenyl]carbonyl}-3-(3-pyridinyl)-5,6,7,8-tetrahydro[1,2,4]triazolo[4,3-a]pyrazine]", "IC50": "< 10"}, {"smiles": "O=C(c1cccc(C(F)(F)F)c1F)N1CCn2c(Br)nnc2C1", "note": "[Example 9, 3-bromo-7-{[2-fluoro-3-(trifluoromethyl)phenyl]carbonyl}-5,6,7,8-tetrahydro[1,2,4]triazolo [4,3-a]pyrazine]", "IC50": "< 100"}, {"smiles": "O=C(c1ccc(Cl)c(F)c1Cl)N1CCn2c(nnc2-c2ccc(F)cn2)C1", "note": "[Example 110, 7-[(2,4-Dichloro-3-fluorophenyl)carbonyl]-3-(5-fluoro-2-pyridinyl)-5,6,7,8-tetrahydro[1,2,4]triazolo[4,3-a]pyrazine]", "IC50": "< 10"}, {"smiles": "O=C(c1ccc(Cl)cc1Cl)N1CCn2c(Br)nnc2C1", "note": "[Example 7, 3-bromo-7-[(2,4-dichlorophenyl)carbonyl]-5,6,7,8-tetrahydro[1,2,4]triazolo [4,3-a]pyrazine]", "IC50": "< 501"}, {"smiles": "O=C(c1ccccc1C(F)(F)F)N1CCn2c(nnc2-c2ccccn2)C1", "note": "[Example 122, 3-(2-pyridinyl)-7-{[2-(trifluoromethyl)phenyl]carbonyl}-5,6,7,8-tetrahydro[1,2,4]triazolo[4,3-a]pyrazine]", "IC50": "< 100"}, {"smiles": "Cc1cccnc1-c1nnc2n1CCN(C(=O)c1cccc(C(F)(F)F)c1Cl)C2", "note": "[Example 28, 7-{[2-chloro-3-(trifluoromethyl)phenyl]carbonyl}-3-(3-methyl-2-pyridinyl)-5,6,7,8-tetrahydro[1,2,4]triazolo [4,3-a]pyrazine]", "IC50": "< 10"}, {"smiles": "O=C(c1ccc(F)cc1Cl)N1CCn2c(nnc2-c2ncccc2F)C1", "note": "[Example 31, 7-[(2-chloro-4-fluorophenyl)carbonyl]-3-(3-fluoro-2-pyridinyl)-5,6,7,8-tetrahydro[1,2,4]triazolo [4,3-a]pyrazine]", "IC50": "< 10"}, {"smiles": "O=C(c1ccc(F)cc1Cl)N1CCn2c(nnc2-c2ccccc2)C1", "note": "[Example 30, 7-[(2-Chloro-4-fluorophenyl)carbonyl]-3-phenyl-5,6,7,8-tetrahydro[1,2,4]triazolo[4,3-a]pyrazine]", "IC50": "< 100"}, {"smiles": "CCCc1nnc2n1CCN(C(=O)c1cccc(C(F)(F)F)c1Cl)C2", "note": "[Example 134, 7-{[2-chloro-3-(trifluoromethyl)phenyl]carbonyl}-3-propyl-5,6,7,8-tetrahydro[1,2,4]triazolo[4,3-a]pyrazine]", "IC50": "< 100"}, {"smiles": "O=C(c1cccc(C(F)(F)F)c1Cl)N1CCn2c(nnc2-c2ccccc2)C1", "note": "[Example 13, 7-{[2-Chloro-3-(trifluoromethyl)phenyl]carbonyl}-3-phenyl-5,6,7,8-tetrahydro[1,2,4]triazolo[4,3-a]pyrazine]", "IC50": "< 10"}, {"smiles": "O=C(c1ccc(Cl)cc1Cl)N1CCn2c(nnc2-c2ncccc2F)C1", "note": "[Example 93]", "IC50": "< 100"}, {"smiles": "O=C(c1c(Cl)cc(Cl)cc1Cl)N1CCn2c(Br)nnc2C1", "note": "[Example 8, 3-bromo-7-[(2,4,6-trichlorophenyl)carbonyl]-5,6,7,8-tetrahydro[1,2,4]triazolo [4,3-a]pyrazine]", "IC50": "< 501"}, {"smiles": "N#Cc1ccccc1C(=O)N1CCn2c(nnc2-c2ccccn2)C1", "note": "[Example 87, 2-{[3-(2-pyridinyl)-5,6-dihydro[1,2,4]triazolo[4,3-a]pyrazin-7(8H)-yl]carbonyl}benzonitrile]", "IC50": "< 100"}, {"smiles": "O=C(c1cccc(C(F)(F)F)c1Cl)N1CCn2c(nnc2C(F)(F)F)C1", "note": "[Example 2, 7-{[2-chloro-3-(trifluoromethyl)phenyl]carbonyl}-3-(trifluoromethyl)-5,6,7,8-tetrahydro[1,2,4]triazolo [4,3-a]pyrazine]", "IC50": "< 100"}, {"smiles": "O=C(c1cccc(C(F)(F)F)c1Cl)N1CCn2c(nnc2C2CC2)C1", "note": "[Example 133, 7-{[2-chloro-3-(trifluoromethyl)phenyl]carbonyl}-3-cyclopropyl-5,6,7,8-tetrahydro[1,2,4]triazolo[4,3-a]pyrazine]", "IC50": "< 100"}, {"smiles": "O=C(c1ccccc1Cl)N1CCn2c(nnc2-c2ccco2)C1", "note": "[Example 117, 7-[(2-chlorophenyl)carbonyl]-3-(2-furanyl)-5,6,7,8-tetrahydro[1,2,4]triazolo[4,3-a]pyrazine]", "IC50": "< 10"}, {"smiles": "O=C(c1ccc(Cl)cc1F)N1CCn2c(nnc2-c2cnccn2)C1", "note": "[Example 106, 7-[(4-chloro-2-fluorophenyl)carbonyl]-3-(2-pyrazinyl)-5,6,7,8-tetrahydro[1,2,4]triazolo [4,3-a]pyrazine]", "IC50": "< 10"}]}]}
